Test results reported in article PMC10350924, “Design, Synthesis, and Pharmacological Characterization of a Potent Soluble Epoxide Hydrolase Inhibitor for the Treatment of Acute Pancreatitis” (Journal of Medicinal Chemistry, 2023).

Experiments:
[1] = system: cerulein-induced acute pancreatitis; assay: Cerulein-induced acute pancreatitis in mice; assay type: in vivo; settings: 10 mg/kg i.p. 0.5 and 2.5 h after first cerulein injection; 6 h
Description: Male CD-1 mice (33–39 g, 8 weeks, Charles River Laboratories; Calco, Italy) were fed with standard rodent chow and water and acclimated for 4 days at a 12 h light and 12 h dark schedule in a constant air-conditioned environment (21 ± 2 °C). The mice were randomly assigned to groups, and experiments were carried out during the light phase. Experimental procedures were conducted in conformity with Italian (D.L. 26/2014) and European (directive 2010/63/EU) regulations on the protection of animals used for scientific purposes and approved by the Italian Ministry. Acute pancreatitis (AP) was induced in mice by intraperitoneal (i.p.) injections of cerulein (50 μg/kg) hourly (5 times).[56] The groups were: (a) Sham group which received saline i.p. hourly (×5); […] The mice were killed 6 h after the first cerulein injection. Blood samples were obtained by direct intracardiac puncture. Pancreases and lungs were removed immediately, frozen, and stored at −80 °C until assayed. Portions of these organs were also fixed in formaldehyde for histological and immunohistochemical examination. Pancreas and lung sections (6 μm) were stained for hematoxylin & eosin (H&E). Evaluation of pancreas edema and inflammation signs were performed with a three-point scoring system. […] Analysis was performed in a blinded manner. Evaluation of lung edema and inflammatory infiltration was performed with three-point scoring system: 0, absent; 1, mild; 2, moderate; 3, severe. […] Tissue sections were then incubated with normal goat serum (Vector Laboratories, Newark, California) for 20 min to reduce nonspecific antibody interactions. Sections were incubated with primary antibody diluted in 0.01 M PBS, 2.5% normal serum (anti-Neutrophils rat monoclonal antibody, dilution 1:100, Abcam) for 30 min. After rinsing with PBS 0.01 M for 5 min, slides were incubated with biotinylated goat anti-rat IgG (Vector Laboratories, Newark, California), diluted 1:200, for 30 min. After rinsing with PBS 0.01 M for 5 min, slides were incubated with VECTASTAIN ABC Reagent (Vector Laboratories, Newark, California) for 30 min. Color development was performed using […] 3,3′-diaminobenzidine solution (Sigma-Aldrich, Milan, Italy), and sections were analyzed using Leica Microsystem with a magnification of 20x. Semiquantitative determination of protein expression was obtained with ImageJ/Fiji software. Liver injury was assessed by measuring the rise in plasma levels of alanine aminotransferase (ALT, a specific marker for hepatic parenchymal injury) and aspartate aminotransferase (AST, a nonspecific marker for hepatic injury) 6 h after cerulein injection by a clinical laboratory. Results are expressed in international units per milliliter.

sEH = settings: cited from earlier work

SMILES	pancreatic injury (edema, cell infiltration, neutrophil numbers) [1]	sEH inhibitory potency in words (Figure 1) (sEH)
O=C(O)CCCCCCCCCCCNC(=O)NC12CC3CC(CC(C3)C1)C2 [AUDA, reference compound]	reduced pancreatic injury	–
O=C(Nc1ccc2c(c1)CCN2Cc1ccc(F)cc1)NC1CCCCC1 [Compound 53]	–	high sEH inhibitory potency
